Test results: ChEMBL document CHEMBL1201862, “PubChem BioAssay data set” (2004)
Active and inactive are the calls of the source.

How the values were obtained:
CAAX prenyl protease 2 = CAAX prenyl protease 2 (Homo sapiens, UniProt Q9Y256); assay: inhibition of Ras-converting CAAX protease Rce1 – biochemical, yeast membranes, quenched-peptide fluorescence, cherry-pick, dose response (AID 588849)
Phosphomannomutase 2 = Phosphomannomutase 2 (Homo sapiens, UniProt O15305); assay: Counter screen SAR assay for PMM2 inhibitors via a fluorescence intensity assay. [Related pubchem assays (depositor defined):AID1545, AID1574]
[1] = target: T1, Mannose-6-phosphate isomerase (Homo sapiens, UniProt P34949); assay: phosphomannose isomerase inhibition – biochemical, fluorescence intensity, confirmation (AID 1535)
T1 sequence (P34949 whole entry): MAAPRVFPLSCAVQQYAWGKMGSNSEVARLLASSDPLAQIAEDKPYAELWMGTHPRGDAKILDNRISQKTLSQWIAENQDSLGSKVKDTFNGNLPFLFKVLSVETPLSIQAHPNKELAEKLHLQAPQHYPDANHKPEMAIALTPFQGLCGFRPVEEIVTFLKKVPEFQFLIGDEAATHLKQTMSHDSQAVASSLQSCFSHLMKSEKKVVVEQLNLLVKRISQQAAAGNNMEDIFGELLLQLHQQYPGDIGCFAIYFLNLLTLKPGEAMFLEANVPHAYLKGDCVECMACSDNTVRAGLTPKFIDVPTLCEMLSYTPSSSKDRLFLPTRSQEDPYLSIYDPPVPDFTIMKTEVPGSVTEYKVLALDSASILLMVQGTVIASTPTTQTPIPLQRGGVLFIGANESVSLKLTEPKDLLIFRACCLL

[2] = viability of uninfected HEp-2 cells – cell-based, HTS, cytotoxicity control for RSV inhibitor project, dose response (AID 2410); type: functional; conditions: human respiratory syncytial virus
CAAX prenyl protease 1 = CAAX prenyl protease 1 (Saccharomyces cerevisiae S288c, UniProt P47154); assay: yeast CAAX protease Ste24 inhibition – biochemical, S. cerevisiae, plate reader, cherry-pick, dose response (AID 488815)
[3] = target: T2, Calpain-2 catalytic subunit (Sus scrofa, UniProt P43367); assay: m-calpain protease blockers, concentration series – biochemical, fluorogenic peptide substrate, dose response (AID 1420); type: functional
T2 sequence (P43367 whole entry): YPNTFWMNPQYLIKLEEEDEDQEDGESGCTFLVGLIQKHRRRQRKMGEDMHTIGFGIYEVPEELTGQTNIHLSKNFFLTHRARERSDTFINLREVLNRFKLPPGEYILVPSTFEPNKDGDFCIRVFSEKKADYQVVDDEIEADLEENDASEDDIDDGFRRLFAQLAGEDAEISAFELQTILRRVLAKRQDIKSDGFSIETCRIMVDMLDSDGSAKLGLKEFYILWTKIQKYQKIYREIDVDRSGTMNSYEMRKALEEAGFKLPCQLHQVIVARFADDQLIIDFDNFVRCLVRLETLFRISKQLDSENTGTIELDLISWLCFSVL

[4] = restored growth of temperature-sensitive Burl-1 yeast – whole organism, S. cerevisiae, Burl-1 ts mutant, luminescence, counter-screen for SUMOylation pathway inhibitor project, dose response (AID 463199); type: functional
[5] = target: Serine/threonine-protein phosphatase (Candida dubliniensis (strain CD36 / CBS 7987 / NCPF 3949 / NRRLY-17841) (Yeast), UniProt B9W6M3); assay: blockers of CaCl2-induced CDRE-lacZ signaling – S. cerevisiae, luminescence, secondary, dose response (AID 2388); type: functional, cell-based;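 further: yeast reporter cells carrying a calcineurin-responsive lacZ construct stimulated with calcium chloride; luminescent beta-galactosidase reporter signal in whole cells rather than isolated phosphatase activity; potency for inhibition where a drop in reporter signal means calcineurin blockade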
[6] = fluconazole-exposed Candida albicans growth modulators – fluorescence, retest, confirmation (AID 2467); type: functional, cell-based
[7] = target: ATP-dependent molecular chaperone HSP82 (Candida albicans (strain WO-1) (Yeast), UniProt C4YTQ8); assay: steroid-induced GRE reporter decrease in yeast – S. cerevisiae, luminescence, Hsp90 inhibitor project, dose response (AID 2400); type: functional, cell-based;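 further: beta-galactosidase luminescence from glucocorticoid response element reporter as proxy for Hsp90 function; inhibitor potency where signal loss means Hsp90 inhibition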
[8] = NIH-3T3 fibroblast cytotoxicity, dose response, cytotoxicity control, cell-based, fluorescence, Alamar Blue, secondary assay (AID 2327); type: functional;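 further: NIH-3T3 mouse fibroblasts cultured with fluconazole at 8 µg/mL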
[9] = target: G-protein coupled receptor 55 (Homo sapiens, UniProt Q9Y2T6); assay: selective activators of receptor GPR55 – imaging, U2OS cells, beta-arrestin-GFP redistribution, primary screen (AID 1961); type: functional
[10] = target: Beta-2 adrenergic receptor (Homo sapiens, UniProt P07550); assay: ADRB2 activation measured by internalization – cell-based, FAP fluorogen, flow cytometry, cherry pick 1, dose response (AID 588763); type: functional
[11] = viability of HCT116 lacking mutant beta-catenin – cell-based, human colon tumor, dose response (AID 1045); type: functional;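 further: HCT116 colon tumor cells with beta catenin knocked out; cells exposed to compound for 60 hours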
[12] = viability of PTEN-deleted HCT116 cells – cell-based, HCT116 PTEN knockout, dose response (AID 1047); type: functional;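 further: HCT116 colon tumor cells with PTEN knocked out; cells exposed to compound for 60 hours before readout; potency for loss of cell viability measured by luminescence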
[13] = target: Voltage-gated inwardly rectifying potassium channel KCNH2 (Homo sapiens, UniProt Q12809); assay: concentration-dependent hERG rescue from blockers – cell-based, thallium flux, dose response (AID 2121); type: ADME
Streptokinase A = target: T3, Streptokinase A (Streptococcus pyogenes serotype M1, UniProt P10520); assay: viability-normalized secreted streptokinase activity reduction – plasminogen activation absorbance, OD405, dose response (AID 1914); type: functional, Streptococcus pyogenes M1 GAS;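 further: secreted streptokinase activity via plasminogen activation per viability signal from cell pellet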
T3 sequence (P10520 whole entry): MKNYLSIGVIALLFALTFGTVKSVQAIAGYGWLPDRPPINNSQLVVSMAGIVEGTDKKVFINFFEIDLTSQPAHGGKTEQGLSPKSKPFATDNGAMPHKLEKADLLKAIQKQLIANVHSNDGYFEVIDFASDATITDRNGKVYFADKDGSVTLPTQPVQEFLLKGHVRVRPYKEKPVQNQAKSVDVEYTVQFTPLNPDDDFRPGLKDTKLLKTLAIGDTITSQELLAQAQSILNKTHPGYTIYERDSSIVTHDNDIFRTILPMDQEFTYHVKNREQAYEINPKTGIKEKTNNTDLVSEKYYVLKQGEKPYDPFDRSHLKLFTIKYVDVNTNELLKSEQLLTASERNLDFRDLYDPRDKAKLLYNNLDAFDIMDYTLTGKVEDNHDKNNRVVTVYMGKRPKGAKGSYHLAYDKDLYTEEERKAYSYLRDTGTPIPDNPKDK

Streptococcus = assay: GAS UMAA2166 growth inhibition – luminescence, BacTiterGlo, counter-screen for streptokinase expression inhibitor project, dose response (AID 1915); type: functional, organism-based;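 further: potency for reduction of bacterial viability or growth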
[14] = decrease of insulin promoter-GFP reporter – imaging, high-content screening, mouse beta cells (AID 1628); type: functional; conditions: MIN6
HEK293 = assay: EBV LMP1 TES2 canonical NF-kB signalling blockers – cell-based, HEK293, luciferase, cherry-pick, dose response (AID 588343); type: functional; conditions: Homo sapiens
[15] = MIN6 cell viability loss – mouse insulinoma, cytotoxicity control, dose response (AID 2122); type: functional;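 further: confirmatory high-throughput counterscreen run to flag cytotoxic compounds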
[16] = test system: Streptococcus sp. 'group A'; assay: Streptococcus pyogenes SK(-)GAS viability under kanamycin – luminescence, BacTiterGlo, confirmation, counter-screen for streptokinase expression inhibitor project, dose response (AID 1900); type: functional, organism-based

ATP-dependent molecular chaperone HSP82, sequence (C4YTQ8 whole entry): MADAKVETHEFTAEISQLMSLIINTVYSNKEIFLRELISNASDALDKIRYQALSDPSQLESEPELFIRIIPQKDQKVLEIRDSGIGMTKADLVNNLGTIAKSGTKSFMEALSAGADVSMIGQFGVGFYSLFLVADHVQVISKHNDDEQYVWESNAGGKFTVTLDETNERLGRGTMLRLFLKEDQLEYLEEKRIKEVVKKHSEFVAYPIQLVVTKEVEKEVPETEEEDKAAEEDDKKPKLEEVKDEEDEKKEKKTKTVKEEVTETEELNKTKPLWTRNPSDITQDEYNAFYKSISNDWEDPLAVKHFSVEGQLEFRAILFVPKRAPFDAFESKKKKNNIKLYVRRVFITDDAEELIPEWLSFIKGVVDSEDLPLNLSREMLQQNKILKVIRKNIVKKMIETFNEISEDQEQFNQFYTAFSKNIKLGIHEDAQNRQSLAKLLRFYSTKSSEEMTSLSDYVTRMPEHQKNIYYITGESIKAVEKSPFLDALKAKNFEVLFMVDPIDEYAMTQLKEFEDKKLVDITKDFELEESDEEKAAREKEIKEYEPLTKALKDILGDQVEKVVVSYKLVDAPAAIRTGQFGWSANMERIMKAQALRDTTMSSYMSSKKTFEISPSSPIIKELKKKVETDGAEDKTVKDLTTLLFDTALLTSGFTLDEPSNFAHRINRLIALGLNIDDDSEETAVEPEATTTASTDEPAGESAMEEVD
CAAX prenyl protease 1, sequence (P47154 whole entry): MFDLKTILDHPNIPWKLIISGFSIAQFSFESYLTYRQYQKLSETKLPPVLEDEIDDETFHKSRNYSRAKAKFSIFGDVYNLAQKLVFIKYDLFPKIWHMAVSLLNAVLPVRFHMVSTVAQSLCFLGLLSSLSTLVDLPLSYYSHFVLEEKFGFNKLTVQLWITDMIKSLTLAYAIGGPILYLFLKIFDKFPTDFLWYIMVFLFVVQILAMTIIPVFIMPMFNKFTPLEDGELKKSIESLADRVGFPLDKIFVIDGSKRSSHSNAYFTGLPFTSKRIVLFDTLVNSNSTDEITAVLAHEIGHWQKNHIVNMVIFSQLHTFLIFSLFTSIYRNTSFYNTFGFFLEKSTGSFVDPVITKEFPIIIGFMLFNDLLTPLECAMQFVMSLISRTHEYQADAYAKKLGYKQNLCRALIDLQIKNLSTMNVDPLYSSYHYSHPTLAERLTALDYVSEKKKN
CAAX prenyl protease 2, sequence (Q9Y256 whole entry): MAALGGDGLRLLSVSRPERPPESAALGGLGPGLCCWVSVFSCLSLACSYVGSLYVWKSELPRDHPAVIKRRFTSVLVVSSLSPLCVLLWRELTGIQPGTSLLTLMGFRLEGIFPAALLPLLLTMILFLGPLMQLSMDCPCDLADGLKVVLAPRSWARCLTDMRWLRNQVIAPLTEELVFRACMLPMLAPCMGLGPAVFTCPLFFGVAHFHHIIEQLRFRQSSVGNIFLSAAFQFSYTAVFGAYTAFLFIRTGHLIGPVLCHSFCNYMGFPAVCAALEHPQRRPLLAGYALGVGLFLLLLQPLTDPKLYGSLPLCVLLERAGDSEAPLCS
Beta-2 adrenergic receptor, sequence (P07550 whole entry): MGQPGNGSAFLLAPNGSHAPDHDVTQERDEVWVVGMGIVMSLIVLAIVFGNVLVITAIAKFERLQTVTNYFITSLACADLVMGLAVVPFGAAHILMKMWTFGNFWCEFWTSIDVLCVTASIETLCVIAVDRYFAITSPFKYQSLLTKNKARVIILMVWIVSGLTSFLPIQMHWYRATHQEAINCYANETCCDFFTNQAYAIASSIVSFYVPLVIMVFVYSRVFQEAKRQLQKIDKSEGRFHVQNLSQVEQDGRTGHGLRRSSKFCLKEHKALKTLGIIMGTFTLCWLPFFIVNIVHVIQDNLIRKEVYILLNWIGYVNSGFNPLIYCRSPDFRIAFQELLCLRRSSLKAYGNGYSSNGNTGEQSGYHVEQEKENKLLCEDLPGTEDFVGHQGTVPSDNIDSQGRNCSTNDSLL
G-protein coupled receptor 55, sequence (Q9Y2T6 whole entry): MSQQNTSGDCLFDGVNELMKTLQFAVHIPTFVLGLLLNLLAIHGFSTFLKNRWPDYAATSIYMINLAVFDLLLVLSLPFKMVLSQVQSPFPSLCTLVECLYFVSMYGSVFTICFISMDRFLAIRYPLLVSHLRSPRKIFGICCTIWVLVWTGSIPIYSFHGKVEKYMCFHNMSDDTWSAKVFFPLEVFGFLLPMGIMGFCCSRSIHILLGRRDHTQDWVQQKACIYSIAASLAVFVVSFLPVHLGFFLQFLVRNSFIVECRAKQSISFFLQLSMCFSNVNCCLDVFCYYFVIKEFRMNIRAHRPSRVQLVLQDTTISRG
Phosphomannomutase 2, sequence (O15305 whole entry): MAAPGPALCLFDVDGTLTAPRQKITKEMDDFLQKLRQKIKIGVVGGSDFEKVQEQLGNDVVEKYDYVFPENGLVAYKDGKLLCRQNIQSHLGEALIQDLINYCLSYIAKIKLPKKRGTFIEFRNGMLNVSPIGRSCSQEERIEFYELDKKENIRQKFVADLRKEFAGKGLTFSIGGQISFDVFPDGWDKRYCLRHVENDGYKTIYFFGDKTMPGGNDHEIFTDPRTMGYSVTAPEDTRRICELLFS
Serine/threonine-protein phosphatase, sequence (B9W6M3 whole entry): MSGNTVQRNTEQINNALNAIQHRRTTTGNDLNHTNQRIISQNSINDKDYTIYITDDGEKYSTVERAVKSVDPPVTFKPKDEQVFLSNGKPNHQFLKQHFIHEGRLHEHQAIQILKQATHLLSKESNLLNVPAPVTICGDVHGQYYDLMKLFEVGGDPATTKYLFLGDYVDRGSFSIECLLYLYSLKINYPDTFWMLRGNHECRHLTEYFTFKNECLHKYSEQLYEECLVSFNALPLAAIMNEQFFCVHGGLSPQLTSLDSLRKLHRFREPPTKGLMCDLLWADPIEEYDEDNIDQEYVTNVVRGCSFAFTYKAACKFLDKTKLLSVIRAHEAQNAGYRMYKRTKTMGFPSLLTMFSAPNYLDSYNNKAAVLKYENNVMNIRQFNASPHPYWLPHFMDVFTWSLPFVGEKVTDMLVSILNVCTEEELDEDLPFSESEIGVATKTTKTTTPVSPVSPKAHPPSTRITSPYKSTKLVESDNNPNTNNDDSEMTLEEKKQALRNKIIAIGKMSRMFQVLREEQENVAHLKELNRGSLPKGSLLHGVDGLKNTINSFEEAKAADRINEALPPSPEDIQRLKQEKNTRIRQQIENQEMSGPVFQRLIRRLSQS
Voltage-gated inwardly rectifying potassium channel KCNH2, sequence (Q12809 whole entry): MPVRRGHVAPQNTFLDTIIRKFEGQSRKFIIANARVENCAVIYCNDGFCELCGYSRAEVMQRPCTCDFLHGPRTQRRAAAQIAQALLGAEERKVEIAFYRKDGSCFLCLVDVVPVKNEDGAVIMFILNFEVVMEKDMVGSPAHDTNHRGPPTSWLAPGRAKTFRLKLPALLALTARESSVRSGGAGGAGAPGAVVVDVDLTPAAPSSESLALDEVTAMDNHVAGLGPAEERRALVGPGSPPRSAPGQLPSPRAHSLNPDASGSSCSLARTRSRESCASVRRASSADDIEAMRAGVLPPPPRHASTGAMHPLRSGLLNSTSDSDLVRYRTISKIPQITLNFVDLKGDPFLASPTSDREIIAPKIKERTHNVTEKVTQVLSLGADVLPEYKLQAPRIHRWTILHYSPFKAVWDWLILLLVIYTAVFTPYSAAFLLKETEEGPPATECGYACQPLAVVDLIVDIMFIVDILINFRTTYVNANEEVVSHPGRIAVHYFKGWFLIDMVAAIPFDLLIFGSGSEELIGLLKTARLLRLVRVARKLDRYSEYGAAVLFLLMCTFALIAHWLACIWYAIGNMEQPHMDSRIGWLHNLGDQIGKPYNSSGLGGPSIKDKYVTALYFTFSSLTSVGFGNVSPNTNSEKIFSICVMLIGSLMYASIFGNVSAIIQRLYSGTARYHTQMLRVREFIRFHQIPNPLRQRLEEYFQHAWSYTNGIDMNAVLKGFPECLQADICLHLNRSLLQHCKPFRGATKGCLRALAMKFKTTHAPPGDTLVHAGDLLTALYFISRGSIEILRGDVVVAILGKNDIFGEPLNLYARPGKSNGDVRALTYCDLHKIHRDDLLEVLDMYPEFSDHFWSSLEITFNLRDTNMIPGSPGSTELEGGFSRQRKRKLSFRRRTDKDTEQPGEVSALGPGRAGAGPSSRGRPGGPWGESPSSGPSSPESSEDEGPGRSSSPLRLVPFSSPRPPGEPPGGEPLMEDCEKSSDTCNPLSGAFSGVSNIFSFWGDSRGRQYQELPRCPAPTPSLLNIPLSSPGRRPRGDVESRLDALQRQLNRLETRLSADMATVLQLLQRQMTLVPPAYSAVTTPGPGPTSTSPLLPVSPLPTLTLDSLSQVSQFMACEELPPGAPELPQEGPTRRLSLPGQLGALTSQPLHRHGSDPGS

CCOC(=O)C1CCCN(S(=O)(=O)c2cc3nc(O)c(O)nc3cc2C)C1 (stereo not drawn)
AC50 (CAAX prenyl protease 2): 21.8 µM (active)

COc1ccc(C)c(/N=c2\ssnc2Cl)c1
IC50 (Phosphomannomutase 2): > 100 µM (inactive)
IC50 [1]: 49.9 µM (active)

Cc1ccc(Nc2nc(-c3ccc(S(=O)(=O)N4CCOCC4)cc3)cs2)cc1Cl
CC50 [2]: 4.91 µM (active)
AC50 (CAAX prenyl protease 1): > 100 µM (inactive)
IC50 [3]: 9.54 µM (active)

O=C(O)/C=C\C(=O)NC1CCCCC1
AC50 [4]: 54.1 µM (active)

CCOc1ccc(NC(S)=NNC(=O)c2ccc(Br)cc2)cc1
EC50 [5]: > 180 µM (inactive)
EC50 [6]: 0.688 µM (active)
IC50 [3]: > 50 µM (not active)
EC50 [7]: > 160 µM (inactive)
EC50 [8]: > 160 µM (inactive)

COc1ccc(C2C(C#N)=C(N)Oc3c2sc2nc(C)cc(C)c32)cc1 (stereo not drawn)
EC50 [9]: 3.41 µM (active)
EC50 [10]: 9.58 µM (inactive)
EC50 [11]: 5.01 µM (active)
EC50 [12]: 4.6 µM (active)

Oc1c(N=NC(S)=Nc2ccccc2F)c2ccccc2n1Cc1ccccc1
EC50 [13]: 0.89 µM (active)
EC50 (Streptokinase A): > 150 µM (not active)
EC50 (Streptococcus): 6.93 µM (active)
IC50 [14]: 6.95 µM (active)
AC50 (HEK293): 3.07 µM (active)
IC50 [15]: 10.1 µM (inactive)
EC50 [16]: 0.562 µM (active)
